# Assay results from publication PMC12199414, “A Self‐Assembling LYTAC Mediates CTGF Degradation and Remodels Inflammatory Tumor Microenvironment for Triple‐Negative Breast Cancer Therapy” (Advanced Science, 2025).
# What was measured:
# MDA‐MB‐231‐Luc cells = assay: Lung metastasis model; format: in vivo, BALB/c nude mice; conditions: 10 mg kg^−1 i.v. every 2 days, 12 times, bioluminescence day 12, 18, 24, n = 3
# Experimental: Exponentially grown 5 × 10^5 MDA‐MB‐231‐Luc cells were suspended in 100 µL of PBS and intravenously injected into female nude BALB/c mice. The mice were randomly divided into […] (n = 3) and treated with PBS, 10 mg kg^−1 NanoCLY via intravenous injection every 2 days for 12 times in total. The growth of lung metastatic tumors was monitored by VISQUE In Vivo Elite after intraperitoneal injection of 20 mg kg^−1 D‐luciferin on day 12, day 18, and day 24. At the end of monitoring on day 24, the lungs were photographed and fixed, and H&E staining. Metastatic areas on the lung surface were quantified by ImageJ software.
# MDA‐MB‐231 tumor = assay: Orthotopic xenograft MDA‐MB‐231 tumor model; format: in vivo, BALB/c nude mice
# Experimental: For the orthotopic xenograft MDA‐MB‐231 tumor model, 3 × 10^6 cells were injected into the fourth pair of breast pads on the left side of the female nude mice (4–6 weeks old). To evaluate the antitumor effect of NanoCLY in vivo, the mice were treated with 10 mg kg^−1 NanoCLY daily once the tumor volume reached ≈50 mm^3, with CL8 peptide (10 mg kg^−1, daily) and FG‐3019 (30 mg kg^−1, every 3 days) as the positive control group and PBS as negative control group. The dose selection and administration frequency of NanoCLY were based on both references to previously reported protein degrader studies with similar mechanisms and effective concentrations,^[ [28], [54], [58] ^] and our preliminary in vivo dose‐escalation experiments. […] Based on this, 10 mg kg^−1 was selected for subsequent experiments. As for FG‐3019, the 30 mg kg^−1 dose was chosen based on previous studies.^[ [43], [59] ^] To evaluate the advantages of degradation strategies in vivo, the mice were treated with 10 mg kg^−1 NanoCLY daily with Nano@CL8 (10 mg kg^−1, daily) and PBS as control group. To evaluate the antitumor effect of combination therapy in vivo, the mice were treated with NanoCLY (10 mg kg^−1, daily), PTX (5 mg kg^−1, every two days), and PTX plus NanoCLY. […]
substance,measurement,setting,value
"C12-CPSAAHYL-PEG3-[Pra(M6P)βAla]3-NH2 [NanoCLY, CL8-M6P3 joined to a lauryl chain via disulfide; self-assembling GSH-responsive LYTAC nanoparticle]",lung colonization by MDA-MB-231 cells,MDA‐MB‐231‐Luc cells,significantly reduced lung colonization
same,tumor growth inhibition (TGI),"MDA‐MB‐231 tumor; 10 mg kg^−1 daily i.v., n = 6",59.62% and ≈ 60%
same,tumor inhibition rate,"MDA‐MB‐231 tumor; preliminary in vivo dose-escalation experiments, 10 mg kg^−1",over 50%
